# Literature values as cited in patent publication US8759329B2 (Unimed Pharmaceuticals, LLC, priority 2005, dated 2014).
# Legend:
# protein (SHBG, albumin) [1] = molecular target: T1, protein (SHBG, albumin) (Homo sapiens, UniProt P04278); settings: in men
# T1 sequence (P04278 30-402): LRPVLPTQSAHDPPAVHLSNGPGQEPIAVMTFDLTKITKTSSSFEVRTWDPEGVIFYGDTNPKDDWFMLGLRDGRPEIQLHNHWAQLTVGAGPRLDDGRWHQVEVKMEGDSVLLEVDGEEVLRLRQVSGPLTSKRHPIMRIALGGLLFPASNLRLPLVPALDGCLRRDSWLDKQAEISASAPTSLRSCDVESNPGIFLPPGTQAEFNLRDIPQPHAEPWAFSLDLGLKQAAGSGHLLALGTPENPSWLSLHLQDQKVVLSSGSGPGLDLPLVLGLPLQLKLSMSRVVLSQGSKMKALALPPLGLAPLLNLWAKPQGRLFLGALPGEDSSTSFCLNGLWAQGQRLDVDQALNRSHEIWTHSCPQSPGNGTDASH
# protein (SHBG, albumin) [2] = molecular target: protein (SHBG, albumin) (Homo sapiens, UniProt P02768); settings: in men
# protein (SHBG, albumin) (Homo sapiens, UniProt P02768), sequence (P02768 25-609): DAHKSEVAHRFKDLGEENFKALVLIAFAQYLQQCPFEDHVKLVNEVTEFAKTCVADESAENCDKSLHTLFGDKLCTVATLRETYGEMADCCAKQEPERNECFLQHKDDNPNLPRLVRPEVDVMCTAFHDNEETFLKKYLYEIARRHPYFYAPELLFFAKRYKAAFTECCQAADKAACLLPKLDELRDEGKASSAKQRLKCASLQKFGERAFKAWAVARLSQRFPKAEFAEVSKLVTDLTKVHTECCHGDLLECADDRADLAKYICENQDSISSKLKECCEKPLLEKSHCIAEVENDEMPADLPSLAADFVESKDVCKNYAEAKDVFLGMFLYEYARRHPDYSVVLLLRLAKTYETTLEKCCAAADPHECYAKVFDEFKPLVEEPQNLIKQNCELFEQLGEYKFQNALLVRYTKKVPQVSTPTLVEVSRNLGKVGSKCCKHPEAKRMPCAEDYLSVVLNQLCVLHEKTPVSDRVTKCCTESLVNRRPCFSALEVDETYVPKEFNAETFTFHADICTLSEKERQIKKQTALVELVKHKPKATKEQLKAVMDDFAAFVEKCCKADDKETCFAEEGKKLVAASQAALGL
# protein (SHBG, albumin) [3] = settings: circulating testosterone
smiles,measurement,setting,value
C[C@]12CC[C@H]3[C@@H](CCC4=CC(=O)CC[C@@]43C)[C@@H]1CC[C@@H]2O [testosterone],share of the binding to SHBG,"protein (SHBG, albumin) [1]",approximately 40%
same,share bound weakly to albumin,"protein (SHBG, albumin) [2]",60%
same,bound to protein in the blood,"protein (SHBG, albumin) [3]",98%
